Experiments:
wild type MV G954 = details: read-out: IC50, inhibition of MV entry (plaque reduction); wt MV G954, Vero-SLAM cells
Procedure: Vero-SLAM cell monolayers were infected with wild type MV G954 in the presence MV HRC peptides at the indicated peptide concentrations. Viral entry was assessed by plaque reduction assay. […] Each point represents the mean (±standard error) of four experiments. […] Vero-SLAM cell monolayers were infected with wild type MV-IC323-EGFP. After 90 minutes, medium with the indicated peptide concentrations was added. Viral spread was assessed by using a fluorescent readout of the EGFP after 72 hours. […] Each point represents the mean (±standard deviation) of a representative experiment.
Vero-SLAM monolayer cells were incubated with 40-50 PFU of wild type MV G954 in the presence of various concentrations of peptides. After 90 minutes, 2× minimal essential medium containing 10% FBS was mixed with 1% avicell and added to the dishes. The plates were then incubated at 37° C. for 72 h. After removing the medium overlay, the cells were immunostained for plaque detection. The number of plaques in the control (no peptide) and experimental wells were counted under a dissecting stereoscope.
The inhibitory activities of MV HRC 1, MV HRC 2, MV HRC 3 and MV HRC 4 (FIG. 1) against wt MV G954 were assessed in plaque reduction assays (FIG. 2A).

MV-IC323-EGFP = details: for IC50: 72 h
[1] = rat, in vivo
[2] = molecular target: HPIV3 envelope glycoproteins (Human parainfluenza 3 virus, UniProt P06828); assay type: cell-based, Human parainfluenza virus type 3; details: fusion assay with HPIV3 envelope glycoproteins; for IC50: read-out: IC50 nM, in vitro efficacy; for IC90: read-out: IC90 nM, in vitro efficacy
[3] = in vivo; cited from earlier work

Chain of HPIV3 envelope glycoproteins (P06828 110-539 limits assumed): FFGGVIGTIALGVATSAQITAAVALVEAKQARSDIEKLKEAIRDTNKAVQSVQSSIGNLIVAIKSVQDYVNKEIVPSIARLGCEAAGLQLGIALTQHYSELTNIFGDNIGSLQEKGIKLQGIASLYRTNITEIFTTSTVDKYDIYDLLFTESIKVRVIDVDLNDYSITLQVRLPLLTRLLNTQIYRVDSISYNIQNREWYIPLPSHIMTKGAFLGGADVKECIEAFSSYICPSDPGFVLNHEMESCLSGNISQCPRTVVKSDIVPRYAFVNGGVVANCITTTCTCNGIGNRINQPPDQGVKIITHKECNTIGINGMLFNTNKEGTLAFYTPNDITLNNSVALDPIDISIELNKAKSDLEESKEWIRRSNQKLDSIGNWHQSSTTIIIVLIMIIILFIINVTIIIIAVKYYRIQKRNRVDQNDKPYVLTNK
Chain of HPIV3 envelope glycoproteins (P06828 19-109 partner limits assumed): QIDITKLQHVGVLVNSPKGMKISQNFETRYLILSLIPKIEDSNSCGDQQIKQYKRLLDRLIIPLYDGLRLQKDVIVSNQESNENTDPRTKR

Compound	IC50 [2]	IC90 [2]	further results
CC[C@H](C)[C@H](NC(=O)[C@H](C)NC(=O)[C@H](CC(N)=O)NC(=O)CNC(=O)[C@H](CC(C)C)NC(=O)[C@H](CC(N)=O)NC(=O)[C@@H](NC(=O)CNC(=O)[C@@H](NC(=O)[C@H](CC(=O)O)NC(=O)[C@H](CC(C)C)NC(=O)[C@H](CCCNC(=N)N)NC(=O)[C@H](CCC(=O)O)NC(=O)[C@H](CC(C)C)NC(=O)[C@H](CO)NC(=O)[C@@H](NC(=O)[C@@H]1CCCN1C(=O)[C@@H]1CCCN1C(C)=O)[C@@H](C)CC)C(C)C)[C@@H](C)O)C(=O)N[C@@H](C)C(=O)N[C@@H](CCCCN)C(=O)N[C@@H](CC(C)C)C(=O)N[C@@H](CCC(=O)O)C(=O)N[C@@H](CC(=O)O)C(=O)N[C@@H](C)C(=O)N[C@@H](CCCCN)C(=O)N[C@@H](CCC(=O)O)C(=O)N[C@@H](CC(C)C)C(=O)N[C@@H](CC(C)C)C(=O)N[C@@H](CCC(=O)O)C(=O)N[C@@H](CO)C(=O)N[C@@H](CO)C(=O)N[C@@H](CC(=O)O)C(=O)N[C@@H](CCC(N)=O)C(=O)N[C@H](C(=O)N[C@@H](CC(C)C)C(=O)N[C@@H](CCCNC(=N)N)C(=O)NCC(=O)N[C@@H](CO)C(=O)NCC(=O)N[C@@H](CO)C(=O)NCC(=O)N[C@@H](CSCC(N)=O)C(N)=O)[C@@H](C)CC [MV HRC1]	–	–	IC50 (wild type MV G954): ~7000 nM; reduction of viral infection (fluorescence level) (MV-IC323-EGFP): neither MV HRC 1 nor MV HRC 3 reduced viral infection
CC[C@H](C)[C@H](NC(=O)[C@H](C)NC(=O)[C@H](CC(N)=O)NC(=O)CNC(=O)[C@H](CC(C)C)NC(=O)[C@H](CC(N)=O)NC(=O)[C@@H](NC(=O)CNC(=O)[C@@H](NC(=O)[C@H](CC(=O)O)NC(=O)[C@H](CC(C)C)NC(=O)[C@H](CCCNC(=N)N)NC(=O)[C@H](CCC(=O)O)NC(=O)[C@H](CC(C)C)NC(=O)[C@H](CO)NC(=O)[C@@H](NC(=O)[C@@H]1CCCN1C(=O)[C@@H]1CCCN1C(C)=O)[C@@H](C)CC)C(C)C)[C@@H](C)O)C(=O)N[C@@H](C)C(=O)N[C@@H](CCCCN)C(=O)N[C@@H](CC(C)C)C(=O)N[C@@H](CCC(=O)O)C(=O)N[C@@H](CC(=O)O)C(=O)N[C@@H](C)C(=O)N[C@@H](CCCCN)C(=O)N[C@@H](CCC(=O)O)C(=O)N[C@@H](CC(C)C)C(=O)N[C@@H](CC(C)C)C(=O)N[C@@H](CCC(=O)O)C(=O)N[C@@H](CO)C(=O)N[C@@H](CO)C(=O)N[C@@H](CC(=O)O)C(=O)N[C@@H](CCC(N)=O)C(=O)N[C@H](C(=O)N[C@@H](CC(C)C)C(=O)N[C@@H](CCCNC(=N)N)C(=O)NCC(=O)N[C@@H](CO)C(=O)NCC(=O)N[C@@H](CO)C(=O)NCC(=O)N[C@@H](CSC1=CC(=O)N(CCCC(=O)NCCOCCOCCOCCOCCC(=O)NCCNCCOC2CCC3(C)C(=CCC4C3CCC3(C)C(C(C)CCCC(C)C)CCC43)C2)C1=O)C(N)=O)[C@@H](C)CC (some centres unmarked) [MV HRC2]	–	–	IC50 (MV-IC323-EGFP): ~54 nM; presence in the brain / CNS localization [1]: a small fraction of the administered peptides was present; presence in the serum [1]: a small fraction of the administered peptides was present
CC[C@H](C)[C@H](NC(=O)[C@H](C)NC(=O)[C@H](CC(N)=O)NC(=O)CNC(=O)[C@H](CC(C)C)NC(=O)[C@H](CC(N)=O)NC(=O)[C@@H](NC(=O)CNC(=O)[C@@H](NC(=O)[C@H](CC(=O)O)NC(=O)[C@H](CC(C)C)NC(=O)[C@H](CCCNC(=N)N)NC(=O)[C@H](CCC(=O)O)NC(=O)[C@H](CC(C)C)NC(=O)[C@H](CO)NC(=O)[C@@H](NC(=O)[C@@H]1CCCN1C(=O)[C@@H]1CCCN1C(C)=O)[C@@H](C)CC)C(C)C)[C@@H](C)O)C(=O)N[C@@H](C)C(=O)N[C@@H](CCCCN)C(=O)N[C@@H](CC(C)C)C(=O)N[C@@H](CCC(=O)O)C(=O)N[C@@H](CC(=O)O)C(=O)N[C@@H](C)C(=O)N[C@@H](CCCCN)C(=O)N[C@@H](CCC(=O)O)C(=O)N[C@@H](CC(C)C)C(=O)N[C@@H](CC(C)C)C(=O)N[C@@H](CCC(=O)O)C(=O)N[C@@H](CO)C(=O)N[C@@H](CO)C(=O)N[C@@H](CC(=O)O)C(=O)N[C@@H](CCC(N)=O)C(=O)N[C@H](C(=O)N[C@@H](CC(C)C)C(=O)N[C@@H](CCCNC(=N)N)C(=O)NCC(=O)N[C@@H](CO)C(=O)NCC(=O)N[C@@H](CO)C(=O)NCC(=O)N[C@@H](CSC1=CC(=O)N(CCCC(=O)NCCOCCOCCOCCOCCC(=O)NCCN(CCNC(=O)CCOCCOCCOCCOCCNC(=O)CCCN2C(=O)C=C(SC[C@H](NC(=O)CNC(=O)[C@H](CO)NC(=O)CNC(=O)[C@H](CO)NC(=O)CNC(=O)[C@H](CCCNC(=N)N)NC(=O)[C@H](CC(C)C)NC(=O)[C@@H](NC(=O)[C@H](CCC(N)=O)NC(=O)[C@H](CC(=O)O)NC(=O)[C@H](CO)NC(=O)[C@H](CO)NC(=O)[C@H](CCC(=O)O)NC(=O)[C@H](CC(C)C)NC(=O)[C@H](CC(C)C)NC(=O)[C@H](CCC(=O)O)NC(=O)[C@H](CCCCN)NC(=O)[C@H](C)NC(=O)[C@H](CC(=O)O)NC(=O)[C@H](CCC(=O)O)NC(=O)[C@H](CC(C)C)NC(=O)[C@H](CCCCN)NC(=O)[C@H](C)NC(=O)[C@@H](NC(=O)[C@H](C)NC(=O)[C@H](CC(N)=O)NC(=O)CNC(=O)[C@H](CC(C)C)NC(=O)[C@H](CC(N)=O)NC(=O)[C@@H](NC(=O)CNC(=O)[C@@H](NC(=O)[C@H](CC(=O)O)NC(=O)[C@H](CC(C)C)NC(=O)[C@H](CCCNC(=N)N)NC(=O)[C@H](CCC(=O)O)NC(=O)[C@H](CC(C)C)NC(=O)[C@H](CO)NC(=O)[C@@H](NC(=O)[C@@H]3CCCN3C(=O)[C@@H]3CCCN3C(C)=O)[C@@H](C)CC)C(C)C)[C@@H](C)O)[C@@H](C)CC)[C@@H](C)CC)C(N)=O)C2=O)CCOC2CCC3(C)C(=CCC4C3CCC3(C)C(C(C)CCCC(C)C)CCC43)C2)C1=O)C(N)=O)[C@@H](C)CC (some centres unmarked) [MV HRC4]	–	–	IC50 (MV-IC323-EGFP): ~55 nM
Ac-VALDPIDISIVLNKIKSDLEESKEWIRRSNKILDSI-GSGSG-C(PEG4-Betulinic)-NH2 (SEQ ID NO: 14) [VIKI-PEG4-Betulinic]	550 nM	> 1000 nM	–
Ac-VALDPIDISIVLNKIKSDLEESKEWIRRSNKILDSI-GSGSG-C(PEG4-C20)-NH2 (SEQ ID NO: 12) [VIKI-PEG4-C20]	75 nM	900 nM	–
Ac-VALDPIDISIVLNKIKSDLEESKEWIRRSNKILDSI-GSGSG-C(PEG4-C30)-NH2 (SEQ ID NO: 13) [VIKI-PEG4-C30]	40 nM	800 nM	–
Ac-VALDPIDISIVLNKIKSDLEESKEWIRRSNKILDSI-GSGSG-C(PEG4-Ursolic)-NH2 (SEQ ID NO: 15) [VIKI-PEG4-Ursolic]	200 nM	> 1000 nM	–
Ac-VALDPIDISIVLNKIKSDLEESKEWIRRSNKILDSI-GSGSG-C(PEG4-palm)-NH2 (SEQ ID NO: 10) [VIKI-PEG4-palm]	400 nM	> 1000 nM	–
enfuvirtide	–	–	distribution in the CNS [3]: negligible distribution in the CNS

— patent publication US10172961B2 (priority 2014, dated 2019)
